Series [1] can be described thus: Solubility of the AmB derivatives. Particulars: 5% glucose solution, ambient temperature, up to saturation; read-out: solubility (soluble up to a concentration of). It is filed as physicochemical. On the procedure:
C.2. Solubility of the AmB derivatives according to the present invention
AmB or the derivatives obtained are dissolved at ambient temperature in a 5% glucose solution up to saturation.

The subject of another series is Aspergillus flavus. Nature of the series: Diffusion method in agar-agar medium (Sabouraud agar-agar). It is filed as cell-based. Particulars: Sabouraud agar-agar, disc diameter 1 cm, 0.1 ml. The method, then: (§1) A.2 : Study of the antibiotic efficiency of amphotericine B derivatives in agar-agar medium against Aspergillus
(§2) The antibiotic activity was tested by the diffusion method in agar-agar medium (Sabouraud agar-agar).
(§3) The efficiency of each molecule was determined by the size of the growth-inhibiting zone around a WHATMAN 3M paper disc impregnated with the antibiotic substance of a given concentration.
(§4) A suspension of Aspergillus spores in a broth was prepared, 0.2 ml of this suspension was used to inoculate at its surface an agar-agar medium which was solidified in such a manner that a homogeneous growth layer was obtained. After spreading, the WHATMAN 3M paper discs (diameter: 1 cm) were placed on the surface of the agar-agar, and then impregnated with 0.1 ml of the antibiotic substance at different concentrations.

The subject of a further series is Aspergillus fumigatus. The description is as above. Type of series: cell-based. Particulars: Sabouraud agar-agar, disc diameter 1 cm, 0.1 ml. The method, then:
as §1, §2, §3, §4

The nature of series [2]: Toxicity on nucleated cells, mice thymocytes. As to conditions: mouse, thymocytes, 1 hour 30, trypan blue, read-out: LD 50 (concentration leading to a mortality of 50%). Type of series: cell-based.
A further series relates to X 63 (mice lymphoma B). Kind of series: Toxicity on nucleated cells, X 63 mice lymphoma B. Type of series: cell-based. As to conditions: 1 hour 30, trypan blue, 90 min, read-out: LD 50 (concentration leading to a mortality of 50%).
Series [3] relates to red corpuscles. Kind of series: Toxicity on red corpuscles (lysis), human. It is filed as cell-based. As to conditions: 37° C., 1 hour 30, 90 min, 90 min, read-out: LD 50 (dose which leads to lysis in 50% of the erythrocytes). The method, then: (§5) B.1: Study of the toxicity on red corpuscles
(§6) All the solutions of the AmB derivatives according to the invention were prepared immediately before use by diluting 4 mg of substance in 100 μl of 5% glucose solution, and then, after 15 minutes protected from light, 100 μl of sterile distilled water are added, and the mixture is made up to stock solutions of 4 mg/ml with a 5% glucose solution. For comparative study of the effects of AmB, 4 mg of FUNGIZONE are diluted with 1 ml of 5% glucose.
(§7) The cells are prepared by placing 1 ml of a peripheral blood sample into a tube together with Ficollhypaque to remove the lymphocytes, and then centrifuging the mixture at 2000 rpm for 20 minutes. The remaining red corpuscles are recovered, washed once with 0.9% NaCl and then twice with 150 Mm KCl, 0.5 Mm tris-HCl, pH 7.4.
(§8) A 1.25% suspension is then prepared with 150 mM KCl solution, 0.5 mM tris-HCl, pH 7.4, and 150 μl thereof are distributed in wells along with 50 μl of each of the dilutions of the derivatives, plus a control well (5% glucose solution).
(§9) The cells are then incubated at 37° C. in a steam cabinet for 1 hour 30.
(§10) To evaluate the cell lysis, haemoglobin is essayed by removing 100 μl of the supernatant in each well and diluting the sample with 1 ml of distilled water.
(§11) The haemoglobin concentration is calculated by measuring the optical density at 540 nm and taking into account the absorption of the derivatives of amphotericine B.
(§12) LD 50 is the dose which leads to lysis in 50% of the erythrocytes (a control of 100% lysis is obtained with distilled water, and reference lysis of 0% is obtained with the 5% glucose solution).

In the next series the test system is Candida albicans. Nature of the series: Growth inhibition in liquid medium (Sabouraud broth). It is filed as cell-based. Particulars: Sabouraud broth, 28° C., 18 hours, read-out: IC 50 (growth-inhibiting concentration of 50%). On the procedure:
(§13) A.1 : Study of the antibiotic efficiency of AmB derivatives in liquid medium against different yeasts
(§14) The antibiotic efficiency was tested by the growth inhibition method in liquid medium (Sabouraud broth) in the presence of different concentrations of the derivatives studied.
(§15) A yeast suspension was cultivated in a broth in such a manner that about 1×10^2 cell/ml were obtained.
(§16) The tubes containing the different concentrations of antifungal substance were inoculated with the same amount of yeast cells, and were then incubated at 28° C. for 18 hours with stirring. For each concentration of antifungal substance, two identical tubes were prepared.
(§17) The inhibition of fungal growth corresponding to the different concentrations was evaluated for each molecule by spectrophotometry at 620 nm and expressed in percent with respect to a reference solution without antifungal substance.

In the next series the test system is Pytirosporum orbiculare. The description is as above. It is filed as cell-based. Particulars: Sabouraud broth, 28° C., 18 hours; read-out: IC 50 (growth-inhibiting concentration of 50%). On the procedure:
as §13, §14, §15, §16, §17

In another series the test system is Cryptoccocus neoformans. Described as above. Type of series: cell-based. As to conditions: 18 h, Sabouraud broth, 28° C., 18 hours; read-out: IC 50 (growth-inhibiting concentration of 50%). On the procedure:
as §13, §14, §15, §16, §17

The next series concerns Saccharomyces cerevisiae. The description is as above. It is filed as cell-based. As to conditions: Saccharomyces cerevisiae, 18 h, Sabouraud broth, 28° C., 18 hours; read-out: IC 50 (growth-inhibiting concentration of 50%). The method, then:
as §13, §14, §15, §16, §17

The next series deals with Candida albicans B 2630. The series is described as above. It is filed as cell-based. Particulars: B2630, Sabouraud broth, 28° C., 18 hours, read-out: IC 50 (growth-inhibiting concentration of 50%). The method, then: as §13, §14, §15, §16, §17
The nature of series [4]: Toxicity on nucleated cells, human bone marrow. It is filed as cell-based. As to conditions: 1 hour 30, trypan blue, read-out: LD 50 (concentration leading to a mortality of 50%). The method, then: (§18) B.2: Study of the toxicity on nucleated cells
(§19) The solutions of the amphotericine B derivatives are prepared similarly to those mentioned in paragraph B.1.
(§20) The cells are prepared by placing 20 ml of blood diluted to 1/2 with 0.9% NaCl into a tube together with 10 ml of Ficoll-hypaque, and the mixture is centrifuged at 2000 rpm for 30 minutes. The cell nuclei are recovered and washed twice with PBS buffer containing 5% of foetal calf serum.
(§21) The cells are prepared by suspending 1.14×10^6 cells/ml in RPMI 1640 containing 2.5% of foetal calf serum and by filling each well with 150 μl. 50 μl of each dilution of the derivatives are added and also one control (5% glucose solution).
(§22) The cells are then incubated in a steam cabinet at a CO2 concentration of 5% for 1 hour 30 at 37° C. or at ambient temperature.
(§23) To evaluate the toxicity of the derivatives, a cell count in the presence of trypan blue is made, and the LD 50 (concentration of the derivative leading to a mortality of 50%) is calculated with respect to the control (5% glucose solution) for each concentration of each derivative.

Series [5] in a line: Toxicity on nucleated cells, DAUDI human lymphoma B. It is filed as cell-based. As to conditions: human, daudi lymphoma b cells, 1 hour 30, trypan blue, read-out: LD 50 (concentration leading to a mortality of 50%).
The nature of series [6]: Toxicity on nucleated cells, mice T lymph gland cells. It is filed as cell-based. As to conditions: mouse, 1 hour 30, trypan blue, read-out: LD 50 (concentration leading to a mortality of 50%). On the procedure: as §18, §19, §20, §21, §22, §23
Series [7] concerns red corpuscles. Nature of the series: Toxicity on red corpuscles (lysis), mice. It is filed as cell-based. As to conditions: 37° C., 1 hour 30, 90 min, 90 min, read-out: LD 50 (dose which leads to lysis in 50% of the erythrocytes). On the procedure: as §5, §6, §7, §8, §9, §10, §11, §12
Series [8] can be described thus: Toxicity on nucleated cells, human thymocytes. It is filed as cell-based. Particulars: 1 hour 30, trypan blue, read-out: LD 50 (concentration leading to a mortality of 50%). On the procedure:
as §18, §19, §20, §21, §22, §23

The nature of series [9]: Toxicity on nucleated cells, mice B lymph gland cells. It is filed as cell-based. As to conditions: mouse, 1 hour 30, trypan blue, read-out: LD 50 (concentration leading to a mortality of 50%). The method, then: as §18, §19, §20, §21, §22, §23
A further series relates to PBL. Nature of the series: Toxicity on nucleated cells, human PBL. It is filed as cell-based. Particulars: human PBL, 1 hour 30, trypan blue; 90 min; read-out: LD 50 (concentration leading to a mortality of 50%). The method, then:
as §18, §19, §20, §21, §22, §23

The nature of series [10]: Toxicity on nucleated cells, X 63 mice lymphoma B. Type of series: cell-based. Particulars: mouse, x 63 lymphoma cells, 1 hour 30, trypan blue, read-out: LD 50 (concentration leading to a mortality of 50%).
For another series, the system named is DAUDI (human lymphoma B). Nature of the series: Toxicity on nucleated cells, DAUDI human lymphoma B. Type of series: cell-based. Particulars: 1 hour 30, trypan blue, 90 min, read-out: LD 50 (concentration leading to a mortality of 50%).

The values below come from patent US5314999A, “Derivatives of basic polyene macrolides and their preparation” (Laboratoires Mayoly-Spindler, priority 1989, dated 1994).

pIC50: −log10 of the molar value. In brackets after ≈: the same amount, converted by molar mass. Where two headings read alike, the source gives them in different places.

As to `C[C@@H]1[C@H](O)[C@@H](C)/C=C/C=C/C=C/C=C/C=C/C=C/C=C/[C@H](O[C@@H]2O[C@H](C)[C@@H](O)[C@H](NCC3(O)O[C@H](C(=O)O)[C@@H](O)[C@@H]3O)[C@@H]2O)C[C@@H]2O[C@](O)(C[C@@H](O)C[C@@H](O)[C@H](O)CC[C@@H](O)C[C@@H](O)CC(=O)O[C@H]1C)C[C@H](O)[C@H]2C(=O)O` (stereo partly drawn) [AmB 17, 1-amino-1-deoxy-D-arabinoglucuronyl-AmB], the solubility in [1] came out at 20 mg/mL (≈ 18.2 mM).
`C[C@@H]1[C@H](O)[C@@H](C)/C=C/C=C/C=C/C=C/C=C/C=C/C=C/[C@H](O[C@@H]2O[C@H](C)[C@@H](O)[C@H](NCC(=O)[C@@H](O)[C@@H]3OC(c4ccccc4)OC[C@H]3O)[C@@H]2O)C[C@@H]2O[C@](O)(C[C@@H](O)C[C@@H](O)[C@H](O)CC[C@@H](O)C[C@@H](O)CC(=O)O[C@H]1C)C[C@H](O)[C@H]2C(=O)O` (stereo partly drawn) [AmB 20 F, 1-deoxy-1-amino-4,6-O-benzylidene-D-fructosyl-AmB]: in the series on Aspergillus flavus, the “concentration giving a growth inhibition of 1 cm around a disc in solid medium” value is reported as 1.5 × 10^-4 molarity. In addition, the IC (1 cm inhibition zone) in the series on Aspergillus fumigatus (Aspergillus fumigatus, read-out: concentration giving a growth inhibition of 1 cm around a disc in solid medium) worked out at 200 µM. The CC50 at 1.5 h in series [2] is 8 µM; in series [4] it was 1000 µM; in series [5], more than 1000 µM; in series [6], 100 µM; in series [8], more than 300 µM; in series [9], 100 µM. Besides, the CC50 in the series with X 63 (mice lymphoma B) and in the series on PBL was more than 1000 µM each time. For the same molecule, the HC50 amounted to 200 µM in the series with red corpuscles [3] and 120 µM in the series on red corpuscles [7]. The pIC50 in the series with Candida albicans (Candida albicans, 18 h) was 7.07; with Pytirosporum orbiculare it was 7.00; in the series with Cryptoccocus neoformans, 7.35; in the series with Saccharomyces cerevisiae, 5.96; with Candida albicans B 2630, 6.82.
For `CC(=O)NC[C@H]1OC(O)(CN[C@@H]2[C@H](O)[C@H](O[C@H]3/C=C/C=C/C=C/C=C/C=C/C=C/C=C/[C@H](C)[C@@H](O)[C@@H](C)[C@H](C)OC(=O)C[C@H](O)C[C@H](O)CC[C@@H](O)[C@H](O)C[C@H](O)C[C@]4(O)C[C@H](O)[C@@H](C(=O)O)[C@H](C3)O4)O[C@H](C)[C@H]2O)[C@@H](O)[C@@H]1O` (some centres unmarked) [AmB 23 F, 6-deoxy-6-N-acetyl-1-deoxy-1-aminofructosyl-AmB], the IC (1 cm inhibition zone) in the series on Aspergillus flavus (Aspergillus flavus, read-out: concentration giving a growth inhibition of 1 cm around a disc in solid medium) came to 600 µM. Besides, the “concentration giving a growth inhibition of 1 cm around a disc in solid medium” value with Aspergillus fumigatus is reported as 2 × 10^-4 molarity. For the same molecule, the CC50 at 1.5 h is 3 µM in series [2] and more than 1000 µM in series [10]. Also, the values for the HC50 in the series with red corpuscles [3] and in the series with red corpuscles [7] were 50 µM and 12 µM, respectively. Besides, the pIC50 with Candida albicans is 6.40; in the series on Pytirosporum orbiculare, 7.12; in the series with Cryptoccocus neoformans it was 6.82; in the series with Saccharomyces cerevisiae, 5.80. For the same molecule, the results for the CC50 in the series on DAUDI (human lymphoma B) and with PBL were more than 1000 µM and 80 µM, respectively.
On to `C[C@@H]1[C@H](O)[C@@H](C)/C=C/C=C/C=C/C=C/C=C/C=C/C=C/[C@H](O[C@@H]2O[C@H](C)[C@@H](O)[C@H](NCC(=O)[C@@H](O)[C@@H]3OC(c4ccccc4)OC[C@H]3O)[C@@H]2O)C[C@@H]2O[C@](O)(C[C@@H](O)C[C@@H](O)[C@H](O)CC[C@@H](O)C[C@@H](O)CC(=O)O[C@H]1C)C[C@H](O)[C@H]2C(=O)O` (stereo partly drawn) [AmB 20, 1-deoxy-1-amino-4,6-O-benzylidene-D-fructosyl-AmB], for which, in series [1], the solubility is 40 mg/mL (≈ 34.1 mM).
On the same count and under the same terms, the figure for `C[C@@H]1[C@H](O)[C@@H](C)/C=C/C=C/C=C/C=C/C=C/C=C/C=C/[C@H](O[C@@H]2O[C@H](C)[C@@H](O)[C@H](NCC3(O)O[C@H](C(N)=O)[C@@H](O)[C@@H]3O)[C@@H]2O)C[C@@H]2O[C@](O)(C[C@@H](O)C[C@@H](O)[C@H](O)CC[C@@H](O)C[C@@H](O)CC(=O)O[C@H]1C)C[C@H](O)[C@H]2C(=O)O` (stereo partly drawn) [AmB 12, 1-amino-1-deoxy-D-arabinoglucuronamidyl-AmB] is 150 mg/mL (≈ 136 mM).
